Measured values reported in patent publication US9758485B2, “Compounds for controlling arthropods” (priority 2013, dated 2017).

What was measured:
Format in all cases: in vivo
Amblyomma hebraeum = Amblyomma hebraeum test (tick nymphs, immersion); conditions: application rate 100 ppm; tick nymphs immersed for one minute; kill after 42 days
In short: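 Mortality (%) is read 42 days post-treatment, where 0% means no ticks and 100% all ticks killed. Nymphs were dipped for 1 min into the test dilution (DMSO stock diluted with water) and afterwards stored on filter paper under controlled climate.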

Rhipicephalus sanguineus = Rhipicephalus sanguineus - in vitro contact tests with adult brown dog ticks; conditions: application rate 5 μg/cm^2, after 48 h (dead or moribund)
In short: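 Test compound was dissolved in acetone p.a. (9 mg in 1 ml, then diluted), and 250 μl were spread evenly over the inner surface of 25 ml test tubes on an orbital shaker at 30 rpm for 2 h. Once the solvent evaporated, 5-10 adult Rhipicephalus sanguineus ticks were sealed in, kept dark at room temperature, and after 48 h placed on a 45-50° C. hotplate to score dead or moribund ticks.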

Tetranychus urticae = Tetranychus urticae - spray test, OP-resistant; conditions: foliar, 144 h, application rate 100 g/ha, bean leaf discs, after 6 days, read-out: efficacy
Description: Tetranychus urticae—Spray Test, OP-Resistant
Solvent: 78.0 parts by weight of acetone and 1.5 parts by weight of dimethylformamide
Emulsifier: alkylaryl polyglycol ether
To produce an appropriate active ingredient formulation, 1 part by weight of active ingredient is dissolved using the specified parts by weight of solvent and made up with water containing an emulsifier concentration of 1000 ppm until the desired concentration is attained. To produce further test concentrations, the preparation is diluted with emulsifier-containing water.
Discs of bean leaves (Phaseolus vulgaris) infested by all stages of the greenhouse red spider mite (Tetranychus urticae) are sprayed with an active ingredient formulation of the desired concentration.
After 6 days, efficacy in % is determined. 100% means that all the spider mites have been killed; 0% means that none of the spider mites have been killed.

Cc1cc(C(F)(C(F)(F)F)C(F)(F)F)cc(C)c1-n1cc(-c2ccc(Cl)c(C(=O)NC3CC3)c2)cn1 [I-T3-1, 2-chloro-N-cyclopropyl-5-[1-[2,6-dimethyl-4-[1,2,2,2-tetrafluoro-1-(trifluoromethyl)ethyl]phenyl]pyrazol-4-yl]benzamide]
100%: efficacy (Amblyomma hebraeum) | efficacy (Rhipicephalus sanguineus) | pest or weed control at 100 g/ha (Tetranychus urticae)
